Here are results for eight molecules from US12660819B2, “Herbicidal derivatives” (SYNGENTA CROP PROTECTION AG, priority 2020, dated 2026).

Each structure is given as a SMILES string.

Holding throughout (type): in vivo
The subject of assay [1] is Ipomoea hederacea (IPOHE). Nature of the assay: Pre-emergence Test (glasshouse, percentage damage to the plant). The note with it: 1000 g/ha unless otherwise stated, Ipomoea hederacea.
The test system of assay [2] is Amaranthus retoflexus (AMARE). The description is as above. The note with it: 1000 g/ha unless otherwise stated, Amaranthus retoflexus.
The subject of assay [3] is Setaria faberi (SETFA). Described as above. As to conditions: 1000 g/ha unless otherwise stated, Setaria faberi.
For assay [4], the system named is Echinochloa crus-galli (ECHCG). The assay is described as above. As to conditions: 1000 g/ha unless otherwise stated, Echinochloa crus-galli.
For assay [5], the system named is Zea mays (ZEAMX). Described as above. As to conditions: 1000 g/ha unless otherwise stated, Zea mays.
The test system of assay [6] is Ipomoea hederacea (IPOHE). As to the kind of experiment: Post-emergence Test (glasshouse, percentage damage to the plant). The note with it: post-emergence; 1000 g/ha unless otherwise stated; evaluated after 13 days. The method, boiled down:
(§1)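 Percentage damage to the plant, assessed 13 days after application and scored 1–5 in 20% bands. Pots sown in standard soil received compound at 1000 g/ha unless otherwise stated, sprayed under 24/16 °C, 14 h light, 65% humidity.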

The test system of assay [7] is Setaria faberi (SETFA). The assay is described as above. The note with it: post-emergence; 1000 g/ha unless otherwise stated; evaluated after 13 days. The method, boiled down:
as §1

The subject of assay [8] is Zea mays (ZEAMX). Described as above. As to conditions: post-emergence; 1000 g/ha unless otherwise stated; evaluated after 13 days. The method, boiled down: as §1
The subject of assay [9] is Amaranthus palmeri (AMAPA). The assay is described as above. As to conditions: post-emergence; 1000 g/ha unless otherwise stated; evaluated after 13 days. The method, boiled down:
(§2)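 After sowing in standard soil, pots were kept at 24/16 °C (day/night), 14 h light and 65% humidity. They were sprayed at 1000 g/ha unless otherwise stated, watered twice daily, and assessed for percentage damage at 13 days on a 1–5 scale.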

Assay [10] deals with Amaranthus retoflexus (AMARE). The description is as above. As to conditions: post-emergence; 1000 g/ha unless otherwise stated; evaluated after 13 days. An outline of the steps:
as §2

The subject of assay [11] is Amaranthus palmeri (AMAPA). Nature of the assay: Pre-emergence Test (glasshouse, percentage damage to the plant). The note with it: 1000 g/ha unless otherwise stated, Amaranthus palmeri.
The test system of assay [12] is Echinochloa crus-galli (ECHCG). Nature of the assay: Post-emergence Test (glasshouse, percentage damage to the plant). The note with it: post-emergence; 1000 g/ha unless otherwise stated; evaluated after 13 days. An outline of the steps: as §2

Turning to `CCn1c(C)c(-c2cc(F)ccc2OC)c(=O)c(C(=O)O)c1-c1ccc(Cl)c(Cl)c1` [Compound 235, 2-(3,4-dichlorophenyl)-1-ethyl-5-(5-fluoro-2-methoxy-phenyl)-6-methyl-4-oxo-pyridine-3-carboxylic acid], the “percentage damage to the plant, IPOHE (five-point scale)” value (shortened to “percentage damage to the plant, IPOHE”) in [1] is recorded as 0. Further, the “percentage damage to the plant, AMARE (five-point scale)” value (“percentage damage to the plant, AMARE” for short) in assay [2] is 0. For the same molecule, the “percentage damage to the plant, SETFA (five-point scale)” value (“percentage damage to the plant, SETFA” below) in assay [3] was 0. Besides, the “percentage damage to the plant, ECHCG (five-point scale)” value (shortened to “percentage damage to the plant, ECHCG”) in [4] turned out to be 0. The “percentage damage to the plant, ZEAMX (five-point scale)” value (“percentage damage to the plant, ZEAMX” for short) in assay [5] is given as 0. In assay [6], the “IPOHE, percentage damage caused to the plant (five-point scale)” value (“IPOHE, percentage damage caused” below) was 3 (3=41-60%). Also, the “SETFA, percentage damage caused to the plant (five-point scale)” value (from here on “SETFA, percentage damage caused”) in assay [7] is reported as 2 (2=21-40%). Moreover, the “ZEAMX, percentage damage caused to the plant (five-point scale)” value (shortened to “ZEAMX, percentage damage caused”) in assay [8] is 1 (1=0-20%). For the same molecule, the “AMAPA, percentage damage caused to the plant (five-point scale)” value (“AMAPA, percentage damage caused” below) in [9] is 4 (4=61-80%). Also, the “AMARE, percentage damage caused to the plant (five-point scale)” value (from here on “AMARE, percentage damage caused”) in [10] is 3 (3=41-60%). Moreover, the “percentage damage to the plant, AMAPA (five-point scale)” value (shortened to “percentage damage to the plant, AMAPA”) in assay [11] is 3 (3=41-60%).
As to `CCn1c(C)c(-c2ccc(C)cc2F)c(=O)c(C(=O)O)c1-c1ccc(Cl)c(Cl)c1` [Compound 236, 2-(3,4-dichlorophenyl)-1-ethyl-5-(2-fluoro-4-methyl-phenyl)-6-methyl-4-oxo-pyridine-3-carboxylic acid], the “percentage damage to the plant, IPOHE” value in assay [1] was 4 (4=61-80%). In addition, the “percentage damage to the plant, AMARE” value in assay [2] is given as 1 (1=0-20%). Further, the “percentage damage to the plant, SETFA” value in [3] is 4 (4=61-80%). Further, the “percentage damage to the plant, ECHCG” value in assay [4] was 3 (3=41-60%). For the same molecule, in assay [5], the “percentage damage to the plant, ZEAMX” value is 1 (1=0-20%). In addition, the “IPOHE, percentage damage caused” value in assay [6] is 5 (5=81-100%). In assay [7], the “SETFA, percentage damage caused” value was 2 (2=21-40%). Further, in assay [8], the “ZEAMX, percentage damage caused” value is reported as 2 (2=21-40%). Further, the “AMAPA, percentage damage caused” value in assay [9] is given as 5 (5=81-100%). Moreover, the “AMARE, percentage damage caused” value in assay [10] is listed as 5 (5=81-100%). Moreover, the “percentage damage to the plant, AMAPA” value in assay [11] is reported as 2 (2=21-40%).
On to `CCN(CC)S(=O)(=O)c1ccc(-c2c(C)n(CC)c(-c3ccc(Cl)c(Cl)c3)c(C(=O)O)c2=O)cc1` [Compound 237, 2-(3,4-dichlorophenyl)-5-[4-(diethylsulfamoyl)phenyl]-1-ethyl-6-methyl-4-oxo-pyridine-3-carboxylic acid], for which, in [1], the “percentage damage to the plant, IPOHE” value is given as 0. Further, the “percentage damage to the plant, AMARE” value in assay [2] worked out at 0. Moreover, in assay [3], the “percentage damage to the plant, SETFA” value is on record as 1 (1=0-20%). In assay [4], the “percentage damage to the plant, ECHCG” value is 2 (2=21-40%). The “percentage damage to the plant, ZEAMX” value in [5] was found to be 0. The “IPOHE, percentage damage caused” value in assay [6] is recorded as 2 (2=21-40%). The “SETFA, percentage damage caused” value in [7] is given as 3 (3=41-60%). For the same molecule, the “ZEAMX, percentage damage caused” value in assay [8] is on record as 1 (1=0-20%). Besides, in assay [9], the “AMAPA, percentage damage caused” value is reported as 4 (4=61-80%). In addition, in assay [10], the “AMARE, percentage damage caused” value is 1 (1=0-20%). Further, the “percentage damage to the plant, AMAPA” value in assay [11] was 1 (1=0-20%).
For `CCn1c(C)c(-c2cccc(Oc3ccccc3)c2)c(=O)c(C(=O)O)c1-c1ccc(Cl)c(Cl)c1` [Compound 238, 2-(3,4-dichlorophenyl)-1-ethyl-6-methyl-4-oxo-5-(3-phenoxyphenyl) pyridine-3-carboxylic acid], in [1], the “percentage damage to the plant, IPOHE” value worked out at 0. Further, in [2], the “percentage damage to the plant, AMARE” value stood at 0. The “percentage damage to the plant, SETFA” value in assay [3] was 0. The “percentage damage to the plant, ECHCG” value in assay [4] turned out to be 0. Besides, the “percentage damage to the plant, ZEAMX” value in [5] is 0. For the same molecule, the “IPOHE, percentage damage caused” value in assay [6] is given as 1 (1=0-20%). For the same molecule, the “SETFA, percentage damage caused” value in assay [7] was 1 (1=0-20%). For the same molecule, in [8], the “ZEAMX, percentage damage caused” value is on record as 1 (1=0-20%). Moreover, in [9], the “AMAPA, percentage damage caused” value was 4 (4=61-80%). In [10], the “AMARE, percentage damage caused” value is recorded as 3 (3=41-60%). Also, the “percentage damage to the plant, AMAPA” value in assay [11] is 0.
Consider `CCn1c(C)c(-c2ccc(S(C)(=O)=O)cc2F)c(=O)c(C(=O)O)c1-c1ccc(Cl)c(Cl)c1` [Compound 239, 2-(3,4-dichlorophenyl)-1-ethyl-5-(2-fluoro-4-methylsulfonyl-phenyl)-6-methyl-4-oxo-pyridine-3-carboxylic acid], for which the “percentage damage to the plant, IPOHE” value in assay [1] is reported as 1 (1=0-20%). Also, the “percentage damage to the plant, AMARE” value in assay [2] is on record as 1 (1=0-20%). For the same molecule, the “percentage damage to the plant, SETFA” value in [3] is recorded as 5 (5=81-100%). Further, the “percentage damage to the plant, ECHCG” value in assay [4] is recorded as 5 (5=81-100%). Besides, the “percentage damage to the plant, ZEAMX” value in assay [5] worked out at 0. Further, the “IPOHE, percentage damage caused” value in assay [6] was 2 (2=21-40%). Besides, the “SETFA, percentage damage caused” value in [7] is 4 (4=61-80%). For the same molecule, the “ZEAMX, percentage damage caused” value in assay [8] is listed as 2 (2=21-40%). Besides, in assay [9], the “AMAPA, percentage damage caused” value is reported as 3 (3=41-60%). For the same molecule, the “AMARE, percentage damage caused” value in assay [10] was 4 (4=61-80%). In addition, the “percentage damage to the plant, AMAPA” value in assay [11] is 1 (1=0-20%).
`CCn1c(C)c(-c2cc(C)nn2C)c(=O)c(C(=O)O)c1-c1ccc(Cl)c(Cl)c1` [Compound 240, 2-(3,4-dichlorophenyl)-5-(2,5-dimethylpyrazol-3-yl)-1-ethyl-6-methyl-4-oxo-pyridine-3-carboxylic acid]: the “percentage damage to the plant, IPOHE” value in assay [1] is listed as 1 (1=0-20%). Besides, in assay [2], the “percentage damage to the plant, AMARE” value is on record as 0. Besides, the “percentage damage to the plant, SETFA” value in assay [3] is 5 (5=81-100%). Moreover, the “percentage damage to the plant, ECHCG” value in assay [4] is 3 (3=41-60%). Besides, the “percentage damage to the plant, ZEAMX” value in assay [5] was 0. For the same molecule, in [6], the “IPOHE, percentage damage caused” value is listed as 4 (4=61-80%). The “SETFA, percentage damage caused” value in assay [7] is given as 4 (4=61-80%). In addition, the “ZEAMX, percentage damage caused” value in assay [8] was 1 (1=0-20%). In addition, the “AMAPA, percentage damage caused” value in assay [9] is on record as 4 (4=61-80%). In addition, the “AMARE, percentage damage caused” value in assay [10] is recorded as 3 (3=41-60%). Moreover, the “percentage damage to the plant, AMAPA” value in [11] was found to be 0.
For `CCn1c(C)c(-c2ccnn2C)c(=O)c(C(=O)O)c1-c1ccc(Cl)c(Cl)c1` [Compound 241, 2-(3,4-dichlorophenyl)-1-ethyl-6-methyl-5-(2-methylpyrazol-3-yl)-4-oxo-pyridine-3-carboxylic acid], in [1], the “percentage damage to the plant, IPOHE” value is 3 (3=41-60%). For the same molecule, the “percentage damage to the plant, AMARE” value in assay [2] was 3 (3=41-60%). For the same molecule, the “percentage damage to the plant, SETFA” value in assay [3] is recorded as 5 (5=81-100%). Also, the “percentage damage to the plant, ECHCG” value in assay [4] is reported as 5 (5=81-100%). In [5], the “percentage damage to the plant, ZEAMX” value is reported as 1 (1=0-20%). Besides, in assay [6], the “IPOHE, percentage damage caused” value is recorded as 3 (3=41-60%). The “SETFA, percentage damage caused” value in assay [7] is 4 (4=61-80%). The “ZEAMX, percentage damage caused” value in [8] was 3 (3=41-60%). In assay [9], the “AMAPA, percentage damage caused” value was 5 (5=81-100%). Moreover, the “AMARE, percentage damage caused” value in assay [10] is listed as 5 (5=81-100%). In addition, the “percentage damage to the plant, AMAPA” value in assay [11] is reported as 2 (2=21-40%).
Regarding `CCn1c(C)c(-c2ccc(Cl)cc2F)c(=O)c(C(=O)OC)c1-c1cnc(Cl)c(Cl)c1` [Compound 282, methyl 5-(4-chloro-2-fluoro-phenyl)-2-(5,6-dichloro-3-pyridyl)-1-ethyl-6-methyl-4-oxo-pyridine-3-carboxylate], in assay [1], the “percentage damage to the plant, IPOHE” value amounted to 0. In addition, in [2], the “percentage damage to the plant, AMARE” value is listed as 3 (3=41-60%). In addition, the “percentage damage to the plant, SETFA” value in assay [3] is 1 (1=0-20%). Further, the “percentage damage to the plant, ECHCG” value in [4] is given as 1 (1=0-20%). Moreover, the “IPOHE, percentage damage caused” value in assay [6] was 2 (2=21-40%). Also, the “ECHCG, percentage damage caused to the plant (five-point scale)” value in [12] was 4 (4=61-80%). Further, in [7], the “SETFA, percentage damage caused” value is 1 (1=0-20%). The “ZEAMX, percentage damage caused” value in assay [8] is on record as 3 (3=41-60%). In addition, the “AMAPA, percentage damage caused” value in assay [9] is on record as 4 (4=61-80%). The “AMARE, percentage damage caused” value in assay [10] is listed as 4 (4=61-80%). The “percentage damage to the plant, AMAPA” value in assay [11] is recorded as 4 (4=61-80%).
